According to article PMC8739956 (Frontiers in Oncology, 2021):
“Also recorded” adds a separate entry of the source. Where two headings read alike, the source gives them in different places.

Assays:
[1] = cited from earlier work
DLBCL [2] = conditions: 14-d ibrutinib therapy before TEDDI-R; cited from earlier work
[3] = cited from earlier work; remark: listed apart in the source
[4] = parameters: method as in PMID 32583848; conditions: cited from earlier work; for Mean CSF (trough concentration): PCNSL patients
DLBCL [5] = conditions: cited from earlier work
TMD8 = conditions: ABC DLBCL lines in vitro (TMD8); cited from earlier work
[6] = LC-MS/MS quantification of zanubrutinib in time-matched plasma and CSF samples of patients; format: in vivo, human; conditions: for concentration at 12 h: read-out: Trough CSF concentration
Procedure: Zanubrutinib is absorbed rapidly with a median time to maximum concentration of 2 h. Blood and CSF samples were collected at 2 or 3 h after the oral administration of zanubrutinib at 160 mg. Zanubrutinib administration was performed for more than 7 d. Additional plasma and CSF specimens for trough concentration testing were collected just before zanubrutinib administration (i.e., 12 h after the last zanubrutinib dose). Biological samples were stored at −20°C for a maximum of one month before analysis.
Zanubrutinib in CSF and sodium heparin plasma samples was quantified by LC-MS/MS. Zanubrutinib standard was obtained from Beigene (Beijing, China). Methanol, methanoic acid, and acetonitrile (high-performance liquid chromatography gradient grade) were purchased from Fisher Scientific, USA. Ultrapure water was obtained using a Milli-Q purification system (Millipore, MA, USA). Control plasma and CSF samples for standards and quality control were obtained from patients treated in the department of hematology of PUMCH. The detailed LC-MS/MS procedure is described in the Supplementary Material .
Zanubrutinib solutions were prepared at a concentration of 1 mg/ml in methanol and further diluted with methanol to obtain working solutions at concentrations of 100–1,000,000 pg/ml. Biological samples (50 µl) were mixed with 10 µl of methanol and 100 µl of acetonitrile. The mixed samples were centrifuged at 2,500 rpm for 3 min at room temperature and at 17,500 rpm for 10 min at 2°C–8°C. The supernatant (120 μl) was then injected into the chromatography system at room temperature.
The analytes were analyzed by reverse-phase chromatography using an UPLC XevoTQ-XS system (Waters Corp., Milford, MA, USA) equipped with an ACQUUITY UPLC®BEH C18 column (2.1×50 mm, 1.7 μm; Waters Corp.). The mobile phase consisted of 0.1% formic acid in acetonitrile and ultrapure water. A mass spectrometer was used in positive mode with an electrospray ionization source. Multiple reaction monitoring mode was used to detect analytes and internal standards.
To create a stock solution of zanubrutinib with a concentration of 1 mg/ml, zanubrutinib (4.55 mg) was added to methanol (4.55 ml). The standard working solution and quality control standard solution of zanubrutinib were then obtained by diluting the stock solution to 1 μg/ml with methanol. To establish the standard curve, the blank control samples of plasma and CSF were added into 50-μl EP tubes followed by the addition of 10 μl standard working solution with different concentrations (see the table below).
The concentrations of analytes in CSF and plasma samples were obtained from the calibration curve constructed by plotting the peak area ratio of each analyte to the internal standard against the concentration. The analyte concentrations in the samples were calculated by linear regression.

IL-10 = test: CSF IL-10 concentration during treatment; format: in vivo, human; conditions: case 6, zanubrutinib monotherapy for 7 d
[7] = test system: diffuse large B-cell lymphoma (DLBCL); test: Clinical response of DLBCL patients (Lugano 2014 / 2005 IELSG criteria); format: in vivo, human; conditions: for MRI lesion in the cerebellum: case 5, zanubrutinib monotherapy
Procedure: Patients with treatment-naive and relapsed/refractory DLBCL were enrolled in this study. […] The exclusion criteria were as follows: severe disease complications or serious comorbidities; active infection; uncontrolled bleeding events; and pregnancy or lactation in women.
The dose of zanubrutinib was fixed at 160 mg twice per day in all patients. Treatment duration and the combined drugs/regimens were decided by the clinicians.
Four regimens were evaluated in this study: Regimen 1, zanubrutinib + rituximab in primary vitreoretinal lymphoma (PVRL) (zanubrutinib at 160 mg twice per day until disease progression or intolerance and rituximab at 375 mg/m^2 every 21 days); Regimen 2, zanubrutinib combined with high-dose methotrexate with or without cytarabine (HD-MTX regimen/MA regimen) in CNSL (methotrexate at 3.5–5.0 g/m^2 d1 and cytarabine at […] every 12 h on d2 and d3, every 21 days per cycle); Regimen 3, zanubrutinib combined with dexamethasone, ifosfamide, carboplatin, and etoposide (DICE) or dexamethasone, cytarabine, and cis-platinum (DHAP) in relapsed and refractory patients every 21 days per cycle as prescribed for the salvage chemotherapy of autologous stem cell transplantation (ASCT); and Regimen 4, zanubrutinib combined with rituximab, cyclophosphamide, epirubicin, vindesine, and prednisone (R-CHOP) for eight cycles as an initial treatment in IVLBCL.
The clinical response was assessed based on the Lugano 2014 Criteria for DBLCL and 2005 IELSG Criteria for PCNSL ([24], [25]). AEs were recorded and assessed according to the Common Terminology Criteria for Adverse Events (CTCAE) v4.0.
Continuous variables were expressed as median and range and compared by Mann–Whitney U-test. Categorical variables were reported as percentages and compared by chi-squared test. The duration of response (DOR) was determined using the Kaplan–Meier method. Statistical analyses were performed with SPSS 25.0 (IBM, NY, USA) or Prism 7.0 (GraphPad, CA, USA). P < 0.05 was considered statistically significant.

[8] = parameters: method as in package insert; conditions: ref package insert, cited from earlier work
CNSL = conditions: high risk group, prophylaxis; cited from earlier work
[9] = relapsed non-GCB DLBCL, phase 2, 41 patients

## C=CC(=O)N1CCC[C@@H](n2nc(-c3ccc(Oc4ccccc4)cc3)c3c(N)ncnc32)C1 [Ibrutinib, ibrutinib]
[1]; ibrutinib
  Protein binding: 97.3%
DLBCL [2]
  Patients with disease improvement after monotherapy: 94%
[3]; 560mg qd
  Mean Plasma: 53.7 ng/mL
[3]; 700mg qd
  Mean Plasma: 217.4 ng/mL
[3]; 840mg qd
  Mean Plasma: 875.6 ng/mL

## CC#CC(=O)N1CC[C@@H](n2c(=O)n(-c3ccc(Oc4ccccc4)cc3)c3c(N)ncnc32)C1 [Tirabrutinib]
[4]; 320mg qd
  Mean CSF (trough concentration): 2.19 ng/mL
  Mean Plasma: 16.3 ng/mL
[4]; 320mg qd, listed as tirabrutinib
  Mean CSF (trough concentration): 2.19 ± 0.476 ng/mL
[4]; 480mg qd
  Mean CSF (trough concentration): 14.0 ng/mL
  Mean Plasma: 77.0 ng/mL
[4]; 480mg qd, listed as tirabrutinib
  Mean CSF (trough concentration): 14.0 ± 8.92 ng/mL

## C=CC(=O)N1CCC([C@@H]2CCNc3c(C(N)=O)c(-c4ccc(Oc5ccccc5)cc4)nn32)CC1 [Zanubrutinib]
DLBCL [5]; among 75 patients with non-Hodgkin lymphoma (including 23 with DLBCL)
  Patients who achieved remission: 14
DLBCL [5]; relapsed non-GCB DLBCL, phase 2, 41 patients, median follow-up 6.8 months
  ORR: 29.3%
DLBCL [5]; [9]
  AEs leading to treatment discontinuation, patients: four
  Complete response rate: 17.1%
TMD8
  IC50: 0.4 nM
[6]; 160mg bid
  Mean CSF: 2.94 ng/mL
  Mean Plasma: 143.2 ng/mL
[6]; 22/23 samples
  Samples with peak CSF concentration above the IC50 values: 95.7%
[6]; corrected for 94% protein binding, entire series, 23 samples
  Corrected CSF/plasma ratio: 42.7 ± 27.7%
[6]; corrected for 94% protein binding, entire series, 23 samples, listed as zanubrutinib
  Corrected CSF/plasma ratio: 42.7% ± 27.7%
[6]; entire series, 23 samples, peak time point 2-3 h after 160 mg oral, 160 mg twice per day
  Mean plasma concentration: 143.1906 ± 93.3027 ng/mL
[6]; human, CSF, oral, 160 mg, 2 h after administration, 10 samples, read-out: Mean CSF concentration
  concentration at 2 h: 4.12 ± 2.86 ng/mL
[6]; human, CSF, oral, 160 mg, 3 h after administration, 13 samples, read-out: Mean CSF concentration
  concentration at 3 h: 2.43 ± 2.03 ng/mL
[6]; human, CSF, oral, 160 mg, case 1, 12 h after the last dose
  concentration at 12 h: 0.267 ng/mL
[6]; human, CSF, oral, 160 mg, case 3, 12 h after the last dose
  concentration at 12 h: 5.02 ng/mL
[6]; human, CSF/plasma, oral, 160 mg, 2 h after administration, 10 samples, read-out: Corrected CSF/plasma ratio
  Kp at 2 h: 0.412 ± 0.325
[6]; human, CSF/plasma, oral, 160 mg, 3 h after administration, 13 samples, read-out: Corrected CSF/plasma ratio
  Kp at 3 h: 0.433 ± 0.265
[6]; human, CSF/plasma, oral, 160 mg, corrected for 94% protein binding, entire series, 23 samples, read-out: Corrected CSF/plasma ratio
  Kp: ~0.4
[6]; human, CSF/plasma, oral, 160 mg, corrected for 94% protein binding, entire series, read-out: Corrected CSF/plasma ratio, range
  Kp: 0.086 to 1.06
[6]; human, CSF/plasma, oral, 160 mg, not corrected for protein binding, read-out: CSF/plasma ratio
  Kp: ~0.02
[6]; human, CSF/plasma, oral, 160 mg, not corrected for protein binding, read-out: CSF/plasma ratio, range
  Kp: 0.0061 to 0.0583
[6]; human, CSF/plasma, oral, 160 mg, six patients with repeated samples in different cycles, read-out: CSF/plasma ratio, range among patients
  Kp: 0.105 to 0.781
[6]; human, plasma, oral, 160 mg, 2 h after administration, 10 samples, read-out: Mean plasma concentration
  concentration at 2 h: 183 ± 91.1 ng/mL
[6]; human, plasma, oral, 160 mg, 3 h after administration, 13 samples, read-out: Mean plasma concentration
  concentration at 3 h: 126 ± 91.6 ng/mL
[1]; zanubrutinib, no reference given
  Protein binding rate: 94%
IL-10
  CSF IL-10 concentration: dramatically decreased
[7]
  MRI lesion in the cerebellum: shrank and disappeared within three weeks
[7]; listed as zanubrutinib
  MRI lesion in the cerebellum: the mass shrank and disappeared
[7]; two relapsed PCNSL cases, monotherapy before combination chemotherapy
  Response to monotherapy as lead-in therapy: rapid and dramatic response; also recorded: significant disease control within 14 d
[8]
  Median time to maximum concentration: 2 h
[8]; listed as zanubrutinib
  Median time to maximum concentration: approximately 2 h

## CN(Cc1cnc2nc(N)nc(N)c2n1)c1ccc(C(=O)N[C@@H](CCC(=O)O)C(=O)O)cc1 [high-dose MTX, methotrexate]
CNSL
  CNS relapsing rate: > 10%
